# Calls of active or inactive are those of the source. The rule behind the calls is not given here.
# Test system: Human immunodeficiency virus
# Test: Antiviral activity against HIV
# Format: functional, organism-based
row,Structure (SMILES),Activity
1,Cc1cn([C@H]2CC[C@@H](CO)[Se]2)c(=O)[nH]c1=O,inactive
2,O=c1ccn([C@H]2CC[C@@H](CO)[Se]2)c(=O)[nH]1,inactive
3,Nc1ccn([C@H]2CC[C@@H](CO)[Se]2)c(=O)n1,inactive
